Measurements as given in patent publication US7550485B2, “Substituted N-heterocycle derivatives and methods of their use” (Wyeth, priority 2003, dated 2009).
Where a name gives a salt, the structure may show the parent alone.

Molecular target: T1, hNET (Homo sapiens, UniProt P23975)
T1 construct: expressed in transfected cells
Experiment: Norepinephrine (NE) uptake assay in MDCK-Net6 cells stably transfected with human hNET
Type: cell-based
Conditions: [3H]NE uptake; for inhibition at 1 µM: MDCK-Net6, 1 μM test compound; for EC50: test range 1 to 10,000 nM
Experimental: MDCK-Net6 cells, stably transfected with human hNET (Pacholczyk, T., R. D. Blakely, and S. G. Amara, Nature, 1991, 350(6316): p. 350-4) were cultured in growth medium containing high glucose DMEM (Gibco, Cat. No. 11995), 10% FBS (dialyzed, heat-inactivated, US Bio-Technologies, Lot FBD1129HI) and 500 μg/ml G418 (Gibco, Cat. No. 10131). Cells were plated at 300,000/T75 flask and cells were split twice weekly. The JAR cell line (human placental choriocarcinoma) was purchased from ATCC (Cat. No. HTB-144). The cells were cultured in growth medium containing RPMI 1640 (Gibco, Cat. No. 72400), 10% FBS (Irvine, Cat. No. 3000), 1% sodium pyruvate (Gibco, Cat. No. 1136) and 0.25% glucose. Cells were plated at 250,000 cells/T75 flask and split twice weekly. For all assays, cells were plated in Wallac 96-well sterile plates (PerkinElmer, Cat. No. 3983498).
Norepinephrine (NE) Uptake Assay
On day 1, cells were plated at 3,000 cells/well in growth medium and maintained in a cell incubator (37° C., 5% CO2). On day 2, growth medium was replaced with 200 μl of assay buffer (25 mM HEPES; 120 mM NaCl; 5 mM KCl; 2.5 mM CaCl2; 1.2 mM MgSO4; 2 mg/ml glucose (pH 7.4, 37° C.)) containing 0.2 mg/ml ascorbic acid and 10 μM pargyline. Plates containing cells with […] of assay buffer were equilibrated for 10 minutes at 37° C. prior to addition of compounds. A stock solution of desipramine was prepared in DMSO (10 mM) and delivered to triplicate wells containing cells for a final test concentration of 1 μM. Data from these wells were used to define non-specific NE uptake (minimum NE uptake). Test compounds were prepared in DMSO (10 mM) and diluted in assay buffer according to test range (1 to 10,000 nM). Twenty-five microliters of assay buffer (maximum NE uptake) or test compound were added directly to triplicate wells containing cells in 200 μl of assay buffer. The cells in assay buffer with test compounds were incubated for 20 minutes at 37° C. To initiate the NE uptake, [^3H]NE diluted in assay buffer (120 nM final assay concentration) was delivered in 25 μl aliquots to each well and the plates were incubated for 5 minutes (37° C.). The reaction was terminated by decanting the supernatant from the plate. The plates containing cells were washed twice with 200 μl assay buffer (37° C.) to remove free radioligand. The plates were then inverted, left to dry for 2 minutes, then reinverted and air-dried for an additional 10 minutes. The cells were lysed in 25 μl of 0.25 N NaOH solution (4° C.), placed on a shake table and vigorously shaken for 5 minutes. After cell lysis, 75 μl of scintillation cocktail was added to each well and the plates were sealed with film tape. The plates were returned to the shake table and vigorously shaken for a minimum of 10 minutes to ensure adequate partitioning of organic and aqueous solutions. The plates were counted in a Wallac Microbeta counter (PerkinElmer) to collect the raw cpm data.
For each experiment, a data stream of cpm values collected from the Wallac Microbeta counter was downloaded to a Microsoft Excel statistical application program. Calculations of EC50 values were made using the transformed-both-sides logistic dose response program written by Wyeth Biometrics Department. The statistical program uses mean cpm values from wells representing maximum binding or uptake (assay buffer) and mean cpm values from wells representing minimum binding or uptake ((1 μM desipramine (hNET) or 1 μM paroxetine (hSERT)). Estimation of the EC50 value was completed on a log scale and the line was fit between the maximum and minimum binding or uptake values. All graphic data representation was generated by normalizing each data point to a mean percent based on the maximum and minimum binding or uptake values. The EC50 values reported from multiple experiments were calculated by pooling the raw data from each experiment and analyzing the pooled data as one experiment.

T1 sequence (P23975 whole entry): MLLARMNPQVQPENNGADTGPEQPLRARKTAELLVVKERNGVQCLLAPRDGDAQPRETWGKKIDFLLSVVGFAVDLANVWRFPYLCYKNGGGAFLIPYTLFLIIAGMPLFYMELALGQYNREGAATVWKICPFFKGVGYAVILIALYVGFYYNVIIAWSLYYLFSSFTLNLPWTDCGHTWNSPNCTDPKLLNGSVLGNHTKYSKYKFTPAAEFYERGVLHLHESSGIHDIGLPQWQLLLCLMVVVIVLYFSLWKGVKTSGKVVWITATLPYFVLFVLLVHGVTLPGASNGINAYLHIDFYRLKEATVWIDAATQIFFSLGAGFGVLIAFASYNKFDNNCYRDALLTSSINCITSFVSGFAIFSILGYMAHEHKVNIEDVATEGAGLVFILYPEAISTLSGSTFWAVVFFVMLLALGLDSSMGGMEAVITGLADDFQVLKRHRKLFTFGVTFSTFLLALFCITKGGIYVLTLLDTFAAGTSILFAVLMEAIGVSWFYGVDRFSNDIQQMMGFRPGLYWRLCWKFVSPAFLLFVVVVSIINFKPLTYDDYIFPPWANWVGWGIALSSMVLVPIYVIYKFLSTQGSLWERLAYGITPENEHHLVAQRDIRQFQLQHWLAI

inhibition at 1 µM	EC50	% Inhibition @ 1 μM (hNET) (1 μM test compound, dihydrochloride, 1 µM)	SMILES
50%	–	–	CN[C@@H]1CCN(CC(c2ccc(OCc3ccccc3)cc2)C2(O)CCCCC2)C1 (stereo partly drawn) [Example 382, 1-{1-[4-(benzyloxy)phenyl]-2-[(3R)-3-(methylamino)pyrrolidin-1-yl]ethyl}cyclohexanol dihydrochloride]
39.5%	–	–	CN(C)[C@H]1CCN(CC(c2ccc3ccccc3c2)C2(O)CCCCC2)C1 (stereo partly drawn) [Example 205, 1-[2-[(3S)-3-(dimethylamino)pyrrolidin-1-yl]-1-(2-naphthyl)ethyl]cyclohexanol dihydrochloride]
81%	190 nM	–	COc1ccc2cc(C(CN3CCC(N4CCCCC4)CC3)C3(O)CCCCC3)ccc2c1 (centres unmarked) [Example 346, 1-[2-(1,4′-bipiperidin-1′-yl)-1-(6-methoxy-2-naphthyl)ethyl]cyclohexanol dihydrochloride]
53.1%	–	–	CN(C)[C@@H]1CCN(CC(c2cccc(OC(F)(F)F)c2)C2(O)CCCCC2)C1 (stereo partly drawn) [Example 219, 1-{2-[(3R)-3-(dimethylamino)pyrrolidin-1-yl]-1-[3-(trifluoromethoxy)phenyl]ethyl}cyclohexanol dihydrochloride]
56%	–	–	NC1CCN(CC(c2cccc(C(F)(F)F)c2)C2(O)CCCCC2)CC1 (centres unmarked) [Example 39, 1-{2-(4-aminopiperidin-1-yl)-1-[3-(trifluoromethyl)phenyl]ethyl}cyclohexanol dihydrochloride]
65%	270 nM	–	CN[C@@H]1CCN(CC(c2ccc(OCc3ccccc3)c(Cl)c2)C2(O)CCCCC2)C1 (stereo partly drawn) [Example 385, 1-{1-[4-(benzyloxy)-3-chlorophenyl]-2-[(3R)-3-(methylamino)pyrrolidin-1-yl]ethyl}cyclohexanol dihydrochloride]
62.3%	–	–	N[C@@H]1CCCN(CC(c2cccc(OC(F)(F)F)c2)C2(O)CCCCC2)C1 (stereo partly drawn) [Example 187, 1-[2-{(3R)-3-aminopiperidin-1-yl]-1-[3-(trifluoromethoxy)phenyl]ethyl}cyclohexanol dihydrochloride]
91.1%	–	–	OC1(C(CN2CCC(N3CCCCC3)CC2)c2ccc(OC(F)(F)F)cc2)CCCCC1 (centres unmarked) [Example 284, 1-{2-(1,4′-bipiperidin-1′-yl)-1-[4-(trifluoromethoxy)phenyl]ethyl}cyclohexanol dihydrochloride]
84%	–	–	COc1ccc(C(CN2CCC(N(C)C)CC2)C2(O)CCCCC2)cc1Br (centres unmarked) [Example 318, 1-{1-(3-bromo-4-methoxyphenyl)-2-[4-(dimethylamino)piperidin-1-yl]ethyl}cyclohexanol dihydrochloride]
96%	180 nM	–	CN(C)C1CCN(CC(c2ccc(OCc3ccccc3)c(Cl)c2)C2(O)CCCCC2)CC1 (centres unmarked) [Example 429, 1-{1-[4-(benzyloxy)-3-chlorophenyl]-2-[4-(dimethylamino)piperidin-1-yl]ethyl}cyclohexanol]
90%	–	–	N[C@@H]1CCN(CC(c2ccc(OCc3ccccc3)c(Cl)c2)C2(O)CCCCC2)C1 (stereo partly drawn) [Example 383, 1-{2-[(3R)-3-aminopyrrolidin-1-yl]-1-[4-(benzyloxy)-3-chlorophenyl]ethyl}cyclohexanol dihydrochloride]
30.2%	–	–	CN[C@H]1CCN(CC(c2cccc(OC(F)(F)F)c2)C2(O)CCCCC2)C1 (stereo partly drawn) [Example 215, 1-{2-[(3S)-3-(methylamino)pyrrolidin-1-yl]-1-[3-(trifluoromethoxy)phenyl]ethyl}cyclohexanol dihydrochloride]
28%	–	–	CN(C)[C@@H]1CCN(CC(c2cccc3ccccc23)C2(O)CCCCC2)C1 (stereo partly drawn) [Example 378, 1-[2-[(3R)-3-(dimethylamino)pyrrolidin-1-yl]-1-(1-naphthyl)ethyl]cyclohexanol dihydrochloride]
21.2%	–	–	CN(C)C1CCN(CC(c2ccc3ccccc3c2)C2(O)CCCCC2)CC1 (centres unmarked) [Example 317, 1-[2-[4-(dimethylamino)piperidin-1-yl]-1-(2-naphthyl)ethyl]cyclohexanol dihydrochloride]
49.9%	–	–	N[C@H]1CCCN(CC(c2cccc(OC(F)(F)F)c2)C2(O)CCCCC2)C1 (stereo partly drawn) [Example 190, 1-{2-[(3S)-3-aminopiperidin-1-yl]-1-[3-(trifluoromethoxy)phenyl]ethyl}cyclohexanol dihydrochloride]
–	–	41.2%	CNC1CCN(CC(c2cccc(C(F)(F)F)c2)C2(O)CCCCC2)C1 (stereo in doubt) [Example 223, 1-{2-[(3R)-3-(methylamino)pyrrolidin-1-yl]-1-[3-(trifluoromethyl)phenyl]ethyl}cyclohexanol dihydrochloride]
66.1%	–	–	CN(C)C1CCN(CC(c2cccc(C(F)(F)F)c2)C2(O)CCCCC2)CC1 (centres unmarked) [Example 321, 1-{2-[4-(dimethylamino)piperidin-1-yl]-1-[3-(trifluoromethyl)phenyl]ethyl}cyclohexanol dihydrochloride]
27.5%	–	–	N[C@@H]1CCN(CC(c2cccc(C(F)(F)F)c2)C2(O)CCCCC2)C1 (stereo partly drawn) [Example 224, 1-{2-[(3R)-3-aminopyrrolidin-1-yl]-1-[3-(trifluoromethyl)phenyl]ethyl}cyclohexanol dihydrochloride]
49.9%	–	–	NC1CCN(CC(c2ccc(OC(F)(F)F)cc2)C2(O)CCC2)CC1 (centres unmarked) [Example 305, 1-{2-(4-aminopiperidin-1-yl)-1-[4-(trifluoromethoxy)phenyl]ethyl}cyclobutanol dihydrochloride]
88%	450 nM	–	CN(C)[C@@H]1CCN(CC(c2ccc(OCc3ccccc3)c(Cl)c2)C2(O)CCCCC2)C1 (stereo partly drawn) [Example 384, 1-{1-[4-(benzyloxy)-3-chlorophenyl]-2-[(3R)-3-(dimethylamino)pyrrolidin-1-yl]ethyl}cyclohexanol dihydrochloride]
42%	–	–	NC1CCN(CC(c2ccc(OCc3ccc4ccccc4c3)c(Cl)c2)C2(O)CCCCC2)CC1 (centres unmarked) [Example 430, 1-{2-(4-aminopiperidin-1-yl)-1-[3-chloro-4-(2-naphthylmethoxy)phenyl]ethyl}cyclohexanol dihydrochloride]
18%	–	–	COc1ccc2scc(C(CN3CCC(N)CC3)C3(O)CCCCC3)c2c1 (centres unmarked) [Example 280, 1-[2-(4-aminopiperidin-1-yl)-1-(5-methoxy-1-benzothien-3-yl)ethyl]cyclohexanol dihydrochloride]
–	410 nM	–	N[C@H]1CCN(C[C@H](c2cccc(Cl)c2)C2(O)CCCCC2)C1 [Example 387, 1-[(1S)-2-[(3S)-3-aminopyrrolidin-1-yl]-1-(3-chlorophenyl)ethyl]cyclohexanol dihydrochloride]
85%	200 nM	–	COc1ccc(C(CN2CCC(N)CC2)C2(O)CCCCC2)cc1Br (centres unmarked) [Example 25, 1-[2-(4-aminopiperidin-1-yl)-1-(3-bromo-4-methoxyphenyl)ethyl]cyclohexanol dihydrochloride]
93%	180 nM	–	COc1ccc(C(CN2CCC(N3CCCC3)CC2)C2(O)CCCCC2)cc1Br (centres unmarked) [Example 9, 1-[1-(3-bromo-4-methoxyphenyl)-2-(4-pyrrolidin-1-ylpiperidin-1-yl)ethyl]cyclohexanol dihydrochloride]
39%	–	–	CNC1CCN(CC(c2ccc3ccccc3c2)C2(O)CCCCC2)CC1 (centres unmarked) [Example 49, 1-[2-[4-(methylamino)piperidin-1-yl]-1-(2-naphthyl)ethyl]cyclohexanol dihydrochloride]
